Where two headings read alike, the source gives them in different places.
Legend:
[1] = test system: Carraghenin-Ödem; assay: Carrageenan-induced oedema test in rats (method of Winter et al.); type: in vivo; conditions: Ratten
Source text: Die entzündungshemmende Wirkung wurde an Hand des Versuches mit dem von Carraghenin hervorgerufenen beziehungsweise induzierten Ödem (Carraghenin-Ödem) an Ratten, welcher im wesentlichen nach der Verfahrensweise von C. A. Winter und Mitarbeitern, J. Pharm. Expt. Ther. […] durchgeführt wurde, bewertet. Die Ergebnisse dieser Versuche sind in der folgenden Tabelle I zusammengestellt.

[2] = test system: Granulome; assay: Cotton pellet granuloma test (method of Meier et al.); type: in vivo
Source text: Ein weiterer Nachweis der starken entzündungshemmenden Wirkung der erfindungsgemäßen Verbindungen erfolgte mit Hilfe des Granulomwattekügelchenversuches, welcher im wesentlichen wie von R. Meier und Mitarbeitern, Experientia, 6 [1950], 1469 beschrieben durchgeführt wurde. Bei diesem Versuch wurden Granuloma durch Einsetzen eines Wattekügelchens in den intraskapularen Bereich des Versuchtieres gebildet. Die Versuchsergebnisse sind in der folgenden Tabelle 11 zusammengestellt.

[3] = test system: durch das Reizmittel hervorgerufene Unterleibsschmerzkrümmungen; assay: Writhing test in mice (method of Wilkin et al.); type: in vivo, Mäusen; conditions: Mäuse; for ED50: Mus musculus, po, read-out: ED50 (Dosen, welche eine 50%ige Verminderung der Zusammenziehung herbeizuführen vermögen)
Protocol: Die schmerzlindernde Wirksamkeit wurde mit Hilfe des »Schmerzkrümmungsversuches« (»writhing test«) an Mäusen im wesentlichen nach der von Wilkin und Mitarbeitern in J. Pharm. Expt. Ther., 133 [1961 ], 409 beschriebenen Versuchsverfahrensweise bewertet. Repräsentative Versuche zeigten, daß die erfindungsgemäßen Verbindungen bei ihrer Verarbreichung in peroralen Dosen von etwa 30 bis 100 mg/kg gegenüber den Blindversuchen eine 50%ige Hemmung der durch das Reizmittel hervorgerufenen Unterleibsschmerzkrümmungen herbeiführten. Bei diesem Versuch zeigte sich, daß die schmerzlindernde Wirkung der erfindungsgemäßen Verbindung N-Acetyl-S-[D-2-(6'-methoxynaphth-2'-yl)-propionyl]-L-cystein (Verbindung der Beispiele 6 und 7) selbst 4 Stunden nach ihrer Verabreichung beträchtlich war.

Compound | Hemmung des Carraghenin-Ödemes in %, bezogen auf die Blindversuche ([1]; Perorale Dosis 50 mg/kg) [%] | Hemmung des Granulomes in %, bezogen auf die Blindversuche ([2]; Perorale Dosis 40 mg/kg) [%] | Hemmung des Granulomes in %, bezogen auf die Blindversuche ([2]; Perorale Dosis 80 mg/kg) [%] | Hemmung des Carraghenin-Ödemes in %, bezogen auf die Blindversuche ([1]; Perorale Dosis 3 mg/kg) [%] | Hemmung des Carraghenin-Ödemes in %, bezogen auf die Blindversuche ([1]; Perorale Dosis 6 mg/kg) [%] | Hemmung des Carraghenin-Ödemes in %, bezogen auf die Blindversuche ([1]; Perorale Dosis 12 mg/kg) [%] | Hemmung des Carraghenin-Ödemes in %, bezogen auf die Blindversuche ([1]; Perorale Dosis 24 mg/kg) [%] | schmerzlindernde Wirkung ([3]; 4 Stunden nach Verabreichung) | ED50 ([3]; 0.5 h, nach 30 Minuten) [mg/kg] | ED50 ([3]; 4 h, nach 4 Stunden) [mg/kg]
COC(=O)[C@H](CS)NC(=O)[C@@H](C)c1ccc2cc(OC)ccc2c1 [Beispiel 2, N-[D-2-(6'-Methoxynaphth-2'-yl)-propionyl]-L-cysteinmethylester] | −57 |  |  |  |  |  |  |  |  | 
CCC1Cc2cc(CC(=O)N[C@@H](CS)C(=O)O)ccc2O1 (stereo partly drawn) [Beispiel 3, N-[2-(2'-Äthyl-2',3'-dihydrobenzofuran-5'-yl)-acetyl]-L-cystein] | −48 | −30 |  |  |  |  |  |  |  | 
COc1ccc2cc([C@H](C)C(=O)N[C@@H](CS)C(=O)O)ccc2c1 [Beispiel 4, N-[D-2-(6'-Methoxynaphth-2'-yl)-propionyl]-L-cystein] |  | −24 | −35 |  |  |  |  |  |  | 
COc1ccc2cc([C@H](C)C(=O)SC[C@H](NC(C)=O)C(=O)O)ccc2c1 [Beispiel 6 beziehungs-weise 7, N-Acetyl-S-[D-2-(6'-methoxynaphth-2'-yl)-propionyl]-L-cystein] |  | −28 | −49 | −42 | −42 | −45 | −58 | beträchtlich | 25 | 10

— patent EP0035641B1, “Cystein derivatives, process for their preparation and medicines containing them” (ALFA FARMACEUTICI S.p.A., priority 1980, dated 1981)
